In patent publication US11639940B2, “Method for determining sensitivity of cyclin-dependent kinase 4/6 inhibitor” (SYSMEX CORPORATION, priority 2019, dated 2023):
Read-outs that look alike come from different tables or passages of the source.

Legend:
DU4475 = test: cytotoxicity test using WST-8 (number of viable cells); assay type: cell-based; details: Homo sapiens, DU-4475, 48 h, DU4475, 48 hours
Description: (§1) Six types of breast cancer cell lines, T47D, MCF7, HCC1500, CAMA-1, DU4475 and MDA-MB-231, were used. T47D, MCF7, HCC1500 and CAMA-1 are HER2-negative/ER-positive breast cancer cell lines, and DU4475 and MDA-MB-231 are cell lines derived from triple negative breast cancer (TNBC). […] In the analysis, the survival rate of the untreated cell line was set to 100%.

HCC1500 = test: as above; assay type: cell-based; details: HCC1500, 48 hours
Description: as §1

MCF7 = test: as above; assay type: cell-based; details: Homo sapiens, MCF7, 48 hours
Description: as §1

MDA-MB-231 = test: as above; assay type: cell-based; details: Homo sapiens, MDA-MB-231, 48 hours
Description: as §1

T47D = test: as above; assay type: cell-based; details: Homo sapiens, 48 hours
Description: as §1

CAMA-1 = test: as above; assay type: cell-based; details: Homo sapiens, CAMA-1, 48 hours
Experimental: Six types of breast cancer cell lines, T47D, MCF7, HCC1500, CAMA-1, DU4475 and MDA-MB-231, were used. T47D, MCF7, HCC1500 and CAMA-1 are HER2-negative/ER-positive breast cancer cell lines, and DU4475 and MDA-MB-231 are cell lines derived from triple negative breast cancer (TNBC). […] In the analysis, the survival rate of the untreated cell line was set to 100%. The IC50 value was calculated from the normalized data by performing curve fitting using KaleidaGraph 4.0.

CDK2 [1] = test: expression level by Western blot in lysate of treated breast cancer cell lines; assay type: cell-based; details: 48 h
Experimental: (§2) After 48 hours, cells were recovered.
(§3) To quantitatively analyze the expression levels, recombinant CDK proteins (rCDK2, rCDK4 and rCDK6) were electrophoresed at 5.0 ng, 2.5 ng, 1.0 ng, 0.75 ng, 0.5 ng and 0.2 ng as standard proteins.

CDK6 = test: as above; assay type: cell-based; details: 48 h
Experimental: as §2, §3

CDK2 [2] = test: CDK activity (phosphorylated substrate peptide, HISCL ELISA) in lysate of treated breast cancer cell lines; assay type: cell-based; design: CDK2 Activity: unit not given here; details: 48 h; for CDK2 Specific activity: activity/expression level
Experimental: After 48 hours, cells were recovered. […] Specifically, it was performed as follows. […] The composition of the substrate solution was as follows. […] The measurement was performed by Automated Immunoassay System […] Corporation). This measurement is based on ELISA on magnetic particles.

breast cancer cell lines = test: cytotoxicity test using WST-8, summary over the cell lines; assay type: cell-based
Description: as §1

CDK4 = details: 48 h
Experimental: After 48 hours, cells were recovered. A cell solubilization buffer was added to a cell pellet to be 5×10^7 cells/mL to lyse the cells, and the supernatant was recovered by centrifugation to obtain a cell lysate (hereinafter also referred to as a “lysate sample”).
The expression levels of CDK2, CDK4 and CDK6 were measured by Western blot as follows. Samples for electrophoresis (1 mg/mL lysate sample, 2×sample buffer and 10% 2-mercaptoethanol) were prepared from each lysate sample obtained in the above (2). Each of samples for electrophoresis (10 μL/lane) was electrophoresed on a polyacrylamide gel. To quantitatively analyze the expression levels, recombinant CDK proteins (rCDK2, rCDK4 and rCDK6) were electrophoresed at 5.0 ng, 2.5 ng, 1.0 ng, 0.75 ng, 0.5 ng and 0.2 ng as standard proteins. The gel after electrophoresis was transferred to a membrane by a conventional method, and a primary reaction was performed using an anti-CDK2 antibody, an anti-CDK4 antibody, and an anti-CDK6 antibody. Then, a secondary reaction was performed using an HRP-labeled antibody, and further reacted with SuperSignal West Femto Substrate (Thermo Fisher), and a chemiluminescent signal was detected with an X-ray film. The blot was quantitatively analyzed by Image Lab 5.2.1 (Bio Rad) to calculate the expression levels (nmol/L) of CDK2, CDK4 and CDK6 in each lysate sample.

## CC(=O)c1c(C)c2cnc(Nc3ccc(N4CCNCC4)cn3)nc2n(C2CCCC2)c1=O [palbociclib]
DU4475
  IC50: > 10000 nM
HCC1500
  IC50: 5360 nM
MCF7
  IC50: 767 nM
MDA-MB-231
  IC50: 475 nM
T47D
  IC50: 202 nM
CAMA-1
  IC50: 888 nM
CDK2 [1]; CAMA-1, palbociclib 426 nM
  Expression level CDK2: 2.8 nmol/L
CDK2 [1]; DU4475, palbociclib 426 nM
  Expression level CDK2: 12.3 nmol/L
CDK2 [1]; HCC1500, palbociclib 426 nM
  Expression level CDK2: 2.9 nmol/L
CDK2 [1]; MCF7, palbociclib 426 nM
  Expression level CDK2: 3.0 nmol/L
CDK2 [1]; MDA-MB-231, palbociclib 426 nM
  Expression level CDK2: 3.0 nmol/L
CDK2 [1]; T47D, palbociclib 426 nM
  Expression level CDK2: 5.7 nmol/L
CDK6; CAMA-1, palbociclib 426 nM
  Expression level CDK6: 0.4 nmol/L
CDK6; DU4475, palbociclib 426 nM
  Expression level CDK6: 60.9 nmol/L
CDK6; HCC1500, palbociclib 426 nM
  Expression level CDK6: 0.4 nmol/L
CDK6; MCF7, palbociclib 426 nM
  Expression level CDK6: 4.3 nmol/L
CDK6; MDA-MB-231, palbociclib 426 nM
  Expression level CDK6: 20.1 nmol/L
CDK2 [2]; CAMA-1, palbociclib 426 nM
  CDK2 Activity: 0.7
  CDK2 Specific activity: 0.25
CDK2 [2]; DU4475, palbociclib 426 nM
  CDK2 Activity: 14.5
  CDK2 Specific activity: 1.17
CDK2 [2]; HCC1500, palbociclib 426 nM
  CDK2 Activity: 0.7
  CDK2 Specific activity: 0.25
CDK2 [2]; MCF7, palbociclib 426 nM
  CDK2 Activity: 1.6
  CDK2 Specific activity: 0.53
CDK2 [2]; MDA-MB-231, palbociclib 426 nM
  CDK2 Activity: 0.7
  CDK2 Specific activity: 0.24
CDK2 [2]; T47D, palbociclib 426 nM
  CDK2 Activity: 2.1
  CDK2 Specific activity: 0.36
Breast cancer cell lines; average over the breast cancer cell lines, read-out: IC50 Average
  IC50: 1540 nM
Breast cancer cell lines; median over the breast cancer cell lines, read-out: IC50 Median
  IC50: 767 nM
CDK4; CAMA-1, palbociclib 426 nM
  Expression level CDK4: 18.9 nmol/L
CDK4; DU4475, palbociclib 426 nM
  Expression level CDK4: 16.6 nmol/L
CDK4; HCC1500, palbociclib 426 nM
  Expression level CDK4: 12.7 nmol/L
CDK4; MCF7, palbociclib 426 nM
  Expression level CDK4: 39.4 nmol/L
CDK4; MDA-MB-231, palbociclib 426 nM
  Expression level CDK4: 20.7 nmol/L
CDK4; T47D, palbociclib 426 nM
  Expression level CDK4: 18.8 nmol/L
